Measurements taken from patent US7438926B2, “Methods for inhibiting decrease in transdermal drug flux by inhibition of pathway closure” (Alza Corporation, priority 2000, dated 2008).
Where a name gives a salt, the structure may show the parent alone. Read-outs that look alike come from different tables or passages of the source.

What was measured:
[1] = format: in vivo, hairless guinea pigs; settings: passive, array pretreatment (545 micrometer, 72/cm^2), PPS 0.05 mg/mL, DECAD 12 mg/mL, Inulin 2.5 mg/mL
Text: Decrease in drug flux has been studied with three model drugs presenting different charge characteristics: pentosan polysulfate (PPS), a highly negatively charged compound, DECAD, a synthetic model decapeptide bearing two positive charges at pH 5.5, and inulin, a neutral polysaccharide.
In this experiment, PPS, DECAD, and inulin were delivered by passive diffusion through pathways in the skin created by pretreatment with a microprotrusion array. Pretreatment involves placing a microprotrusion array onto the skin with sufficient force to create a plurality of microslits/microcuts through the stratum corneum of the skin. The microprotrusion array is then removed from the skin and then some form of agent delivery device or agent reservoir is placed over the pathways in order to effect agent delivery or sampling. Pretreatment was used instead of integrated system because pathway closure appears to occur more rapidly and more reproducibly following pretreatment than when the microprotrusions are left in the skin during drug delivery. The concentration of PPS was below the concentration required for anticoagulant effect. All drugs were dissolved in water and solutions were gelled with 2% hydroxyethylcellulose. […]. PPS and DECAD were radiolabeled with tritium. […] was radiolabeled with ^14C.
Microprotrusion array application was performed with an impact applicator. […]. […]

[2] = format: in vivo, hairless guinea pigs
pathway closure [3] = assay: Inhibition of pathway closure by chemicals, methylene blue dye score after microprotrusion array pretreatment; format: in vivo, hairless guinea pigs; settings: for Effect on pathway closure (in words): methylene blue evaluation, Table II
Procedure: Inhibition of pathway collapse by chemical agents was studied following pretreatment of the skin with a microprotrusion array and application of a formulation containing the agent for 24 h. Quantitation was performed by evaluation of dye impregnation of the pathways.
Application of the microprotrusion array was performed with an impact applicator. […] Following application, the stretching tension was released. […] The guinea pig received a second system containing a different formulation on the opposite site. Twenty four hours after application, three systems from each group were removed and residual formulation washed from the skin. The skin was stained with a 1% methylene blue solution. Excess dye was thoroughly removed with 70% isopropyl alcohol pads and a picture of the site was taken. Pictures were scored on a 0 to 5 scale, 5 being the dye uptake obtained immediately following microprotrusion array application and 0 being the dye uptake obtained after 24 h contact with a control formulation. A score of 0.5 or greater was considered significant. Various osmotic agents, anticoagulants, antiinflammatory agents, gelling agents as well as gels of different pH and various additives were tested (Table II).

pathway closure [4] = assay: Effect of pathway closure inhibitors on passive transdermal PPS flux (Example 3, 545 μm array); format: in vivo, hairless guinea pigs; settings: for Effect on decrease in PPS flux between 1 and 24 h (in words): 3% citric acid trisodium salt or 50% 1,2,6-hexanetriol in PPS 0.1 mg/mL formulation; for Increase in total amount of PPS transported as compared to controls: 3% citric acid trisodium salt or 50% 1,2,6-hexanetriol
Procedure: In this experiment, PPS was delivered by passive diffusion through pathways in the skin created by a microprotrusion array. The concentration of PPS was below the concentration required for inhibition of pathway collapse (see Table II). Therefore, at the concentration used in this experiment, PPS behaved like a drug lacking any activity on pathway closure.
Microprotrusion array application was performed with an impact applicator. […] Following application, the stretching tension was released. […] Flux in the presence of 1,2,6-hexanetriol was decreased by less than 2 fold between 1 and 24 h. Total amount transported was increased about 4 and 7 folds in the presence of citric acid and 1,2,6-hexanetriol, respectively, as compared to controls as shown in FIG. 2.

pathway closure [5] = settings: PPS 0.16 mg/mL; 3% citric acid trisodium salt, 50% 1,2,6-hexanetriol or their mixture; 45 min vs 24 h
Procedure: In all guinea pigs, the skin of one flank was manually stretched bilaterally at the time of the application of the system. Microprotrusion array application was performed with an impact applicator. […] Following application, the stretching tension was released. The adhesive ring was left adhered on the skin and the microprotrusion array was removed. […] Additional groups of HGPs were treated in the same way, except that the formulation contained 3% citric acid trisodium salt or 50% 1,2,6-hexanetriol. At 1 and 24 h after application, 3 systems from each group were removed and residual drug washed from the skin.
(§1) Evaluation was performed at 45 min instead of 1 h. In addition, additional groups of animals received a formulation containing the mixture of 3% citric acid trisodium salt and 50% 1,2,6-hexanetriol.

[6] = Passive intracutaneous delivery of plasmid DNA vaccine with microprotrusion array (skin biopsy, PCR); format: in vivo, hairless guinea pigs; settings: for Increase in plasmid DNA delivered as compared to the control formulation: at one hour, 3% citric acid trisodium salt or 1% Tween 80 in formulation
Procedure: Feasibility studies were conducted in hairless guinea pigs (HGPs) to determine whether passive intracutaneous delivery of a plasmid DNA vaccine (pCMV-AYW-HBs-Mkan), which encodes for hepatitis B surface antigen [HBsAg]), could be achieved using Macroflux. […] Application of the microprotrusion array was performed with an impact applicator. The system applied comprised a foam double adhesive ring (diameter 2.5 cm, thickness 0.08 cm) with a 1 cm^2 reservoir in the middle.
One of two configurations of microprotrusion arrays were used. Each configuration has a total surface area of 2 cm^2 and an active total blade surface area of 1 cm^2.
A microprotrusion array of the selected type was adhered to the adhesive foam and covered the bottom of the reservoir (after application, the microprotrusion array is in contact with the skin). Following application, the stretching tension was released and the microprotrusion array was left in situ. […] At 1 hour after application, two systems from each group were removed and residual formulation washed from the skin. The amount of drug penetrated at that time was determined in a 6 mm diameter full thickness skin biopsy taken at the skin site. The biopsy was dissolved in a digestion buffer (sodium dodecyl sulfate/proteinase K) and relevant DNA content was evaluated by polymerase chain (PCR) reaction followed by electrophoresis of the PCR product. A positive control group was included which consisted of 10 μg plasmid DNA injected intradermally. Negative controls consisted of the plasmid DNA applied on the skin without the use of a microprotrusion array. […].

pathway closure [7] = settings: guinea pig, not told
Procedure: as §1
An additional experiment was performed with PPS. Conditions were identical to that described in Example 4. Gluconic acid sodium salt, glucuronic acid sodium salt and glucose were evaluated at 0.6 M concentration with or without 3% citric acid.

[8] = parameters: species or system hairless guinea pigs; settings: guinea pig, in vivo
Text: […]. […] […].

[9] = parameters: species or system hairless guinea pigs; settings: guinea pig, in vivo; remark: listed apart in the source
Procedure: Additional experiments were performed with PPS in order to test alternative modes of delivery. […]. By comparison, with the same microprotrusion array and the same PPS concentration, total dose from a transdermal microprotrusion array with integrated drug reservoir and a pretreatment with a microprotrusion array and subsequent application of a drug reservoir was 2.2±0.2 mg and 1.4±0.2 mg, respectively. […]

[10] = in vivo, po, cited from earlier work
pathway closure [11] = assay: India ink staining of sites after microprotrusion array pretreatment; format: in vivo, hairless guinea pigs; settings: sites exposed to the additive for 24 h
[12] = additive concentration 50%, 24 h, scale 0 to 5, 0.5 or greater significant
[13] = additive concentration 30%, 24 h, scale 0 to 5, 0.5 or greater significant
[14] = additive concentration 70%, 24 h, scale 0 to 5, 0.5 or greater significant

With inulin the “Drug Flux” value ([1]; 1 h) was 13.9 ± 1.6 μg/(cm^2h), the “Drug Flux” value ([1]; 24 h) was 0.489 ± 0.123 μg/(cm^2h) and the “percentage excreted in urine following iv injection” value ([2]; over two days following injection, previous studies) was 94%.
In the case of `OCCCCC(O)CO` (stereo not shown) [1,2,6-Hexanetriol], the “Effect on pathway closure (in words)” value (pathway closure [3]; 24 h) is reported as “most effective agents”, the “Score (methylene blue)” value (pathway closure [3]; additive concentration 11%, 24 h, scale 0 to 5, 0.5 or greater significant) is reported as 2.0 ± 0.3 and the “Score (methylene blue)” value (pathway closure [3]; additive concentration 23%, 24 h, scale 0 to 5, 0.5 or greater significant) is reported as 3.0 ± 0.5. For the same compound, the “Score (methylene blue)” value (pathway closure [3]; [12]) was 3.8 ± 0.2, the “Effect on decrease in PPS flux between 1 and 24 h (in words)” value (pathway closure [4]) was “inhibited this decrease in flux” and the “Increase in total amount of PPS transported as compared to controls” value (pathway closure [4]; PPS 0.1 mg/mL) was roughly 7 folds. For the same compound, the “Decrease in PPS flux between 1 and 24 h in the presence of additive” value (pathway closure [4]; PPS 0.1 mg/mL, formulation with 50% 1,2,6-hexanetriol) was “less than 2 fold” and the “Effect on decrease in PPS flux at 24 hours (in words)” value (pathway closure [5]) was “inhibited significantly the decrease in flux”.
In the case of `O=C(O)CC(O)(CC(=O)O)C(=O)O` [citric acid trisodium salt], the “Comparison between formulation groups” value ([6]; 1 hour) is reported as “most efficient formulation” and the “Increase in plasmid DNA delivered as compared to the control formulation” value [6] is reported as “more than 10 fold”.
In the case of pentosan polysulfate [PPS], the “percentage excreted in urine following iv injection” value ([2]; guinea pig, in vivo, iv) is reported as 32%, the “Score (methylene blue)” value (pathway closure [3]; additive concentration 0.01%, 24 h, scale 0 to 5, 0.5 or greater significant) is reported as 0 ± 0 and the “Score (methylene blue)” value (pathway closure [3]; additive concentration 5%, 24 h, scale 0 to 5, 0.5 or greater significant) is reported as 0.5 ± 0.0. For the same compound, the “Decrease in PPS flux between 1 hour and 24 hours” value (pathway closure [4]; PPS 0.1 mg/mL, 2% HEC, no anti-healing agent) was “about 12 fold”, the “Change of PPS flux between 1 hour and 24 hours (in words)” value (pathway closure [7]) was “flux decreased dramatically” and the “intact fraction of dose excreted in urine” value [8] was “more than 85%”. For the same compound, the total dose [9] was 2.2 ± 0.2 mg, the total dose delivered [9] was 1.9 ± 0.1 mg and the bioavailability ([10]; 300 mg) was 1-3%. For the same compound, the “fraction of dose absorbed found intact in urine” value [10] was “less than 5%”.
With `OCC(O)CO` [Glycerin] the “Score (methylene blue)” value (pathway closure [3]; [13]) was 2.7 ± 0.2, the “Score (methylene blue)” value (pathway closure [3]; [12]) was 3.0 ± 0.2 and the “Score (methylene blue)” value (pathway closure [3]; [14]) was 2.7 ± 0.3. For the same compound, the “Pathways open for larger sized compounds (India ink staining)” value (pathway closure [11]) was “pathways were open for larger sized compounds”.
With `O=C(O)CC(O)(CC(=O)O)C(=O)O` [citric acid] the “Effect on pathway closure (in words)” value (pathway closure [3]; 24 h) was “most effective agents in preventing pathway closure”, the “Effect on decrease in PPS flux between 1 and 24 h (in words)” value (pathway closure [4]) was “inhibited this decrease in flux” and the “Increase in total amount of PPS transported as compared to controls” value (pathway closure [4]; PPS 0.1 mg/mL) was “about 4 folds”. For the same compound, the “Effect on decrease in PPS flux at 24 hours (in words)” value (pathway closure [5]) was “inhibited significantly the decrease in flux” and the “Pathways open for larger sized compounds (India ink staining)” value (pathway closure [11]) was “pathways were open for larger sized compounds”.
With `CCCCCCCC/C=C\CCCCCCCC(=O)OCCOCC(OCCO)C1OCC(OCCO)C1OCCO` (stereo not shown) [Tween 80] the “Increase in plasmid DNA delivered as compared to the control formulation” value [6] was “no significant enhancement”.
In the case of `CC(O)CO` (stereo not shown) [Propylene glycol], the “Score (methylene blue)” value (pathway closure [3]; [13]) is reported as 0.7 ± 0.2, the “Score (methylene blue)” value (pathway closure [3]; [12]) is reported as 1.3 ± 0.1 and the “Score (methylene blue)” value (pathway closure [3]; [14]) is reported as 1.0 ± 0.6.
For `CCC(O)CO` (stereo not shown) [1-2 Butane diol], the “Score (methylene blue)” value (pathway closure [3]; guinea pig, in vivo) was 2.0 ± 0.8.
